From US11680060B2, “Bicycloheptane pyrrolidine orexin receptor agonists” (Merck Sharp & Dohme LLC, priority 2020, dated 2023)

Molecular target: human OX2R (Homo sapiens (Human), UniProt O43614)
Assay: IPOne (IP-1) assay in CHO cells expressing human OX2R
Format: cell-based
Details: for IC50: CHO cells expressing human OX2R, IP-One detection, 2 hours incubation, EC50 = inflection point of four parameter logistic fit, read-out: hOX2R_IP_IC50; for Emax: CHO, read-out: Emax (%)
Text: The utility of the compounds in accordance with the present invention as orexin receptor OX1R and/or OX2R agonists may be readily determined without undue experimentation by methodology well known in the art. Both the OX1R and/or OX2R G-coupled protein receptors (GPCRs) couple through the Gαq signaling pathway, which ultimately promotes calcium mobilization via inositol triphosphate (IP3) production. The half-life of IP-3 is relatively short, being rapidly metabolized to inositol monophosphate (IP-1), which can be readily detected using a commercially available assay kit (IP-One; Cisbio; cat #621PAPEC) coupled with a cell line expressing the target receptor(s) of interest. The utility of the compounds in accordance with the present invention as orexin receptor OX1R and/or OX2R agonists may be determined utilizing this assay.
In a typical experiment, the OX1 and OX2 receptor agonist activity is determined in accordance with the following general experimental method. Chinese hamster ovary (CHO) cells expressing human OX1R and/or the human OX2R were grown in Iscove's modified DMEM containing glutaMAX™, 1% G418, 100 U/mL penicillin, 100 μg/mL streptomycin and 10% heat-inactivated qualified fetal bovine serum (FBS). The OX2R cells were seeded at 10,000 cells/well/50 μL and the OX1R cells were seeded at 20,000 cells/well/50 μL into 384-well white tissue culture plates (Greiner; cat #781080). All cell/media reagents were from GIBCO-Invitrogen Corp. The seeded cell plate(s) were incubated at 37° C. with 5% CO2 and 85% humidity for 20-24 hours. On the day of the assay, assay-ready compound plates were prepared using an acoustic liquid handler (ECHO; Labcyte), which dispensed sufficient volume of test compound stock (10 mM in DMSO) or 100% DMSO to prepare 10 point, ½-log dilutions in a final volume of 202.5 nL/well in all test wells of a 384-well diamond plate (Labcyte). Following completion of assay-ready plates, importantly, the next three steps were performed with minimal delay: 1) 20 μl of 1× stimulation buffer was added to the compound plate using a Multidrop Combi (small cassette, Thermo Fisher Scientific cat #24073290); 2) culture medium was removed from the cell plate using the Bluewasher plate washer (gentle spin; BlueCatBio); 3) 14 μl of compound/stimulation buffer mixture was added to the cell plate using a Bravo liquid handler (Agilent) prior to incubating cell plates at 37° C. with 5% CO2 and 85% humidity for 1 or 2 hours (OX1R and OX2R, respectively). During this incubation, IP-one detection reagents were prepared (38:1:1 lysis buffer:D2:AB-cryptate reagents). Six μL of mixed detection reagents were added to the cell plate using a Multidrop Combi (small cassette, Thermo Fisher Scientific cat #24073290) and incubated 60 minutes at room temperature in the dark. Fluorescence signal was detected using an Envision plate reader (Perkin Elmer) [LANCE/DELFIA Dual Enh (Em: APC 665; Ex: Cy5 620)].
For each compound, data were fit to a four parameter logistic fit (ActivityBase software) and the EC50 was reported as the inflection point of the resulting curve. Percent effect for each test compound was determined as the percentage of sample raw value/mean max effect, where the mean max effect was derived from the mean raw value of 32 control wells per assay plate (using Orexin A (cat #003-30) at 1 μM for human OX1R and a reference compound at 1 uM with 100% activity previously established by comparison to Orexin A for human OX2R). The intrinsic orexin receptor agonist activity of a compound which may be used in the present invention may be determined by these assays.

[1] = percentage of mean max effect of a reference compound at 1 uM (100% activity by comparison to Orexin A), human OX2R

human OX2R, sequence (O43614 whole entry): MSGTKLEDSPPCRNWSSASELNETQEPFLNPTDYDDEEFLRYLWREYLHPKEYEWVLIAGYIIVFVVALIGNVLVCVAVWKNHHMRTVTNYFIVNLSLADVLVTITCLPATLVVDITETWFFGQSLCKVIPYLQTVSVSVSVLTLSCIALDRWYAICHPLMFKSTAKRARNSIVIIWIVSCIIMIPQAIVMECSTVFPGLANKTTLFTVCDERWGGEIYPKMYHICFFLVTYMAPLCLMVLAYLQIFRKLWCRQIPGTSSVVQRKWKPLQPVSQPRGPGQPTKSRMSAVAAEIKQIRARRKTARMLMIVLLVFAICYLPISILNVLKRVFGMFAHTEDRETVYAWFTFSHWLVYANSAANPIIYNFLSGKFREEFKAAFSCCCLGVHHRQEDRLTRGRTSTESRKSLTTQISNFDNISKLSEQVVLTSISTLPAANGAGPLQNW

| SMILES | IC50 [nM] | Emax [1] [%] | Emax (%) [1] [%] |
| --- | --- | --- | --- |
| COC(=O)N1[C@H](C(F)F)C[C@H](NS(=O)(=O)C(F)F)[C@@H]1CO[C@H]1CC[C@@]2(c3ncc(F)cn3)C[C@H]2C1 (single isomer, unassigned) [Example 112] | 0.78 | 100 | – |
| COC(=O)N1[C@H](C(F)F)C[C@H](NS(=O)(=O)CF)[C@@H]1CO[C@H]1CC[C@@]2(c3ncc(F)cn3)C[C@H]2C1 (single isomer, unassigned) [Example 113] | 0.6 | 103 | – |
| CCS(=O)(=O)N[C@H]1C[C@@H](C(F)F)N(C(=O)OC)[C@H]1CO[C@H]1CC[C@@]2(c3ncc(Cl)cn3)C[C@H]2C1 (single isomer, unassigned) [Example 114] | 1.4 | 98.6 | – |
| COC(=O)N1[C@H](C(F)F)C[C@H](NS(=O)(=O)CF)[C@@H]1CO[C@H]1CC[C@@]2(c3ncc(Cl)cn3)C[C@H]2C1 (single isomer, unassigned) [Example 115] | 1.1 | 103 | – |
| CCS(=O)(=O)N[C@H]1C[C@@H](C(F)F)N(C(=O)OC(C)C)[C@H]1CO[C@H]1CC[C@@]2(c3ncc(F)cn3)C[C@H]2C1 (single isomer, unassigned) [Example 118] | 0.99 | 100 | – |
| CC(C)OC(=O)N1CCC[C@H](NS(=O)(=O)CF)[C@@H]1CO[C@H]1CC[C@@]2(c3ncc(F)cn3)C[C@H]2C1 (single isomer, unassigned) [Example 124] | 0.37 | 99.3 | – |
| CC(C)OC(=O)N1CCC[C@H](NS(C)(=O)=O)[C@@H]1CO[C@H]1CC[C@@]2(c3ncc(F)cn3)C[C@H]2C1 (single isomer, unassigned) [Example 125] | 0.95 | 103 | – |
| COC(=O)N1[C@H](C(F)F)C[C@H](NS(C)(=O)=O)[C@@H]1CO[C@H]1CC[C@@]2(c3ncc(F)cn3)C[C@H]2C1 (single isomer, unassigned) [Example 127] | 1.7 | 101 | – |
| COC(=O)N1[C@@H]2CCC[C@@H]2[C@H](NS(C)(=O)=O)[C@@H]1CO[C@H]1CC[C@@]2(c3ncc(F)cn3)C[C@H]2C1 (single isomer, unassigned) [Example 131] | 1.8 | 101 | – |
| COC(=O)N1[C@H](C(F)(F)F)C[C@H](NS(C)(=O)=O)[C@@H]1CO[C@H]1CC[C@@]2(c3ncc(F)cn3)C[C@H]2C1 (single isomer, unassigned) [Example 133] | 2.6 | 101 | – |
| COC(=O)N1[C@H](C)C[C@H](NS(C)(=O)=O)[C@@H]1COC1CC[C@@]2(c3nccs3)C[C@H]2C1 (single isomer, unassigned) [Example 146] | 50.7 | 101 | – |
| CC(C)OC(=O)N1[C@H](C)C[C@H](NS(C)(=O)=O)[C@@H]1CO[C@@H]1CC[C@]2(c3ncc(Cl)cn3)C[C@@H]2C1 (single isomer, unassigned) [Example 150] | 19.6 | 102 | – |
| CC(C)OC(=O)N1[C@H](C)C[C@H](NS(C)(=O)=O)[C@@H]1CO[C@H]1CC[C@@]2(c3ncc(Cl)cn3)C[C@H]2C1 (single isomer, unassigned) [Example 151] | 4.4 | 101 | – |
| COC(=O)N1[C@H](C)C[C@H](NS(C)(=O)=O)[C@@H]1CO[C@@H]1CC[C@]2(c3ncc(C)cn3)C[C@@H]2C1 (single isomer, unassigned) [Example 155] | 717 | 54.3 | – |
| COC(=O)N1[C@H](C)C[C@H](NS(C)(=O)=O)[C@@H]1CO[C@H]1CC[C@@]2(c3ncc(C)cn3)C[C@H]2C1 (single isomer, unassigned) [Example 156] | 19.2 | 102 | – |
| CC(C)OC(=O)N1[C@H](C)C[C@H](NS(=O)(=O)N(C)C)[C@@H]1CO[C@@H]1CC[C@]2(c3ncc(F)cn3)C[C@@H]2C1 (single isomer, unassigned) [Example 160] | 1.6 | 102 | – |
| CC(C)OC(=O)N1[C@H](C)C[C@H](NS(=O)(=O)N(C)C)[C@@H]1CO[C@H]1CC[C@@]2(c3ncc(F)cn3)C[C@H]2C1 (single isomer, unassigned) [Example 161] | 0.8 | 102 | – |
| COC(=O)N1[C@H](C)C[C@H](NS(=O)(=O)N(C)C)[C@@H]1CO[C@@H]1CC[C@]2(c3ncc(F)cn3)C[C@@H]2C1 (single isomer, unassigned) [Example 165] | 3.9 | 101 | – |
| COC(=O)N1CC[C@H](NS(C)(=O)=O)[C@@H]1CO[C@@H]1CC[C@]2(c3ncccn3)C[C@@H]2C1 (single isomer, unassigned) [Example 176] | 2030 | 94.7 | – |
| COC(=O)N1CC[C@H](NS(C)(=O)=O)[C@@H]1CO[C@H]1CC[C@@]2(c3ncccn3)C[C@H]2C1 (single isomer, unassigned) [Example 177] | 238 | 99.8 | – |
| COC(=O)N1[C@H](C)C[C@H](NS(C)(=O)=O)[C@@H]1CO[C@@H]1CC[C@]2(c3ncccn3)C[C@@H]2C1 (single isomer, unassigned) [Example 180] | 100 | 99.7 | – |
| COC(=O)N1[C@H](C)C[C@H](NS(C)(=O)=O)[C@@H]1CO[C@H]1CC[C@@]2(c3ncccn3)C[C@H]2C1 (single isomer, unassigned) [Example 181] | 4.5 | 101 | – |
| COC(=O)N1[C@H](C)C[C@H](NS(C)(=O)=O)[C@@H]1COC1CCC2(c3ncccn3)CC2C1 (single isomer, unassigned) [Example 183] | 2260 | 89.7 | – |
| COC(=O)N1[C@H](C)C[C@H](NS(=O)(=O)N(C)C)[C@@H]1COC1CCC2(c3ncccn3)CC2C1 (single isomer, unassigned) [Example 186] | 142 | 99.5 | – |
| COC(=O)N1[C@H](C)C[C@H](NS(=O)(=O)N(C)C)[C@@H]1COC1CCC2(c3ncccn3)CC2C1 (single isomer, unassigned) [Example 187] | 2.1 | – | 100.0 |
| COC(=O)N1[C@H](C)C[C@H](NS(=O)(=O)N(C)C)[C@@H]1COC1CCC2(c3cc(F)cc(F)c3)CC2C1 (stereo partly drawn) [Example 4, methyl (2R,3S,5R)-2-(((6-(3,5-difluorophenyl)bicyclo[4.1.0]heptan-3-yl)oxy)methyl)-3-((N,N-dimethylsulfamoyl)amino)-5-methylpyrrolidine-1-carboxylate] | – | 97.3 | – |
| COC(=O)N1[C@H](C)C[C@H](NS(=O)(=O)N(C)C)[C@@H]1COC1CCC2(c3ccc(C#N)cc3)CC2C1 (stereo partly drawn) [Example 5, methyl (2R,3S,5R)-2-(((6-(4-cyanophenyl)bicyclo[4.1.0]heptan-3-yl)oxy)methyl)-3-((N,N-dimethylsulfamoyl)amino)-5-methylpyrrolidine-1-carboxylate] | – | 99.8 | – |
| COC(=O)N1[C@H](C)C[C@H](NS(=O)(=O)N(C)C)[C@@H]1COC1CCC2(c3ncccn3)CC2C1 (stereo partly drawn) [Example 6, methyl (2R,3S,5R)-3-((N,N-dimethylsulfamoyl)amino)-5-methyl-2-(((6-(pyrimidin-2-yl)bicyclo[4.1.0]heptan-3-yl)oxy)methyl)pyrrolidine-1-carboxylate] | – | 101 | – |
| COC(=O)N1[C@H](C)C[C@H](NS(=O)(=O)N(C)C)[C@@H]1COC1CCC2(c3ncccn3)C(C1)C2(F)F (stereo partly drawn) [Example 7, methyl (2R,3S,5R)-2-(((7,7-difluoro-6-(pyrimidin-2-yl)bicyclo[4.1.0]heptan-3-yl)oxy)methyl)-3-((N,N-dimethylsulfamoyl)amino)-5-methylpyrrolidine-1-carboxylate] | – | 39.4 | – |
